The target of experiment [1] is PD-L1 His protein / PD-1 Fc protein (Homo sapiens (Human), UniProt Q9NZQ7). Kind of experiment: HTRF Assay (PD-1/PD-L1 interaction). The conditions noted are these: PD-L1 His 6 nM, PD-1 Fc 6 nM. The class given is binding. For orientation: TR-FRET usually uses a lanthanide donor and a delayed reading to cut background.
Another experiment has as its target human PD-L1 (Homo sapiens (Human), UniProt Q9NZQ7). Description: T cell activation luciferase reporter cell culture system (T Cell Activation Assay). The class given is cell-based. The conditions noted are these: luciferase reporter assay; PD-L1 aAPC/CHO-K1 cells with PD-1 effector Jurkat T cells.

As a reminder, the IC50 is the midpoint of a concentration-inhibition curve. High values mean weaker potency in that assay, low ones greater potency in that assay. Broadly, the EC50 is the concentration at which the effect is half-maximal. Lower therefore signals a more potent agent.

Molecules are shown by their SMILES.

Chain of human PD-L1 (Q9NZQ7 19-290): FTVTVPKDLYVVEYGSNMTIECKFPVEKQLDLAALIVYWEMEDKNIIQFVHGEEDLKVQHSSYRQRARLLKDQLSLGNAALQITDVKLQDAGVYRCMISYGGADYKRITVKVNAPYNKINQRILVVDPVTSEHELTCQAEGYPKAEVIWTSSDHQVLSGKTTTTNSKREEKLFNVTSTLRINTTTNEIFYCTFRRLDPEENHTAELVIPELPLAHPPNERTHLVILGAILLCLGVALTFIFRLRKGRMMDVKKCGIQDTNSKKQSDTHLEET
Chain of PD-L1 His protein / PD-1 Fc protein (Q9NZQ7 19-238): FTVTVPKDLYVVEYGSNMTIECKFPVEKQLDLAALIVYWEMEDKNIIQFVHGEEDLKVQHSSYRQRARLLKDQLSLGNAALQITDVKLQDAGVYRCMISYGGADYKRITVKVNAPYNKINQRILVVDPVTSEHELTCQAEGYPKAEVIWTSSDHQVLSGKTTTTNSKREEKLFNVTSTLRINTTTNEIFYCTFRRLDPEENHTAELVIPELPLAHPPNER

Take `COc1nc(-c2ccnc(-c3cccc4c3CC[C@@H]4Nc3nc(OC)c(CN4CC5(C4)CN(C(C)=O)C5)nc3C(F)(F)F)c2Cl)ccc1CN1CC2(C1)CN(C(C)=O)C2` [Example 305, (S)-1-(6-((5-((4-(5-((6-Acetyl-2,6-diazaspiro[3.3]heptan-2-yl)methyl)-3′-chloro-6-methoxy-[2,4′-bipyridin]-2′-yl)-2,3-dihydro-1H-inden-1-yl)amino)-3-methoxy-6-(trifluoromethyl)pyrazin-2-yl)methyl)-2,6-diazaspiro[3.3]heptan-2-yl)ethan-1-one]: half-maximal inhibition in experiment [1] (IC50) was put at 0.00496 µM. This molecule displayed an EC50 on human PD-L1 not below 10 µM.

In turn, `COc1cc(-c2nccc(-c3cccc4c3CC[C@@H]4Oc3nc(OC)c(CN4CC5(CNC(=O)C5)C4)cc3C(F)(F)F)c2Cl)cc(F)c1CN1CC2(CNC(=O)C2)C1` [Example 306, (S)-2-(4-(3-chloro-4-(1-((6-methoxy-5-((7-oxo-2,6-diazaspiro[3.4]octan-2-yl)methyl)-3-(trifluoromethyl)pyridin-2-yl)oxy)-2,3-dihydro-1H-inden-4-yl)pyridin-2-yl)-2-fluoro-6-methoxybenzyl)-2,6-diazaspiro[3.4]octan-7-one] registered an IC50 in experiment [1] of 0.00076 µM. Further, the EC50 at human PD-L1 was determined as 0.361 µM.

As to `COc1nc(-c2cccc(-c3ccnc(-c4cc(Cl)c5c(c4)CCN(CC4COC4)C5)c3Cl)c2Cl)ccc1CNC[C@@H]1CCC(=O)N1` [Example 307, (S)-5-((((6-(2-Chloro-3-(3-chloro-2-(8-chloro-2-(oxetan-3-ylmethyl)-1,2,3,4-tetrahydroisoquinolin-6-yl)pyridin-4-yl)phenyl)-2-methoxypyridin-3-yl)methyl)amino)methyl)pyrrolidin-2-one], the IC50 in experiment [1] came to 0.00141 µM. This molecule returned an EC50 on human PD-L1 of 0.186 µM.

On to `COc1nc(-c2cccc(-c3ccnc(-c4ccc5c(CN6CC7(C6)CN(C(C)=O)C7)nn(C)c5c4)c3Cl)c2Cl)ccc1CNC[C@@H]1CCC(=O)N1` [Example 308, (S)-5-((((6-(3-(2-(3-((6-Acetyl-2,6-diazaspiro[3.3]heptan-2-yl)methyl)-1-methyl-1H-indazol-6-yl)-3-chloropyridin-4-yl)-2-chlorophenyl)-2-methoxypyridin-3-yl)methyl)amino)methyl)pyrrolidin-2-one], for which the 50% inhibitory concentration (IC50) in experiment [1] worked out at 0.00095 µM. At human PD-L1, this molecule displayed an EC50 of 0.0241 µM.

With `COc1nc(-c2cccc(-c3ccnc(-c4ccc5c(CN6CC[C@H](C(=O)O)C6)nn(C)c5c4)c3Cl)c2Cl)ccc1CNC[C@@H]1CCC(=O)N1` [Example 309, (S)-1-((6-(3-Chloro-4-(2-chloro-3-(6-methoxy-5-(((((S)-5-oxopyrrolidin-2-yl)methyl)amino)methyl)pyridin-2-yl)phenyl)pyridin-2-yl)-1-methyl-1H-indazol-3-yl)methyl)pyrrolidine-3-carboxylic acid], the IC50 in experiment [1] is 0.0003 µM. At human PD-L1, the EC50 was found to be 0.075 µM.

`COc1nc(-c2cccc(-c3ccnc(-c4cc(OC)c5nc(CNC[C@@H]6CCC(=O)N6)cn5c4)c3Cl)c2Cl)ccc1CNC[C@@H]1CCC(=O)N1` [Example 310, (S)-5-((((6-(2-Chloro-3-(3-chloro-2-(8-methoxy-2-(((((S)-5-oxopyrrolidin-2-yl)methyl)amino)methyl)imidazo[1,2-a]pyridin-6-yl)pyridin-4-yl)phenyl)-2-methoxypyridin-3-yl)methyl)amino)methyl)pyrrolidin-2-one] showed an IC50 in experiment [1] of 0.0018 µM. This molecule also came in with an EC50 at human PD-L1 of 0.0905 µM.

`COc1cc(-c2nccc(-c3cccc(-c4cnc(CNC5CCN(C(C)=O)CC5)c(OC)n4)c3Cl)c2Cl)ccc1CNC1CCN(C(C)=O)CC1` [Example 311, 1-(4-(((5-(3-(2-(4-(((1-Acetylpiperidin-4-yl)amino)methyl)-3-methoxyphenyl)-3-chloropyridin-4-yl)-2-chlorophenyl)-3-methoxypyrazin-2-yl)methyl)amino)piperidin-1-yl)ethan-1-one] registered an IC50 in experiment [1] of 0.000907 µM. This molecule also showed a 50% effective concentration (EC50) at human PD-L1 of 0.152 µM.

As to `COc1nc(-c2cccc(-c3ccnc(-c4cc(OC)c5nc(CN[C@H]6C[C@](C)(O)C6)cn5c4)c3Cl)c2Cl)ccc1CNC[C@@H]1CCC(=O)N1` [Example 312, (S)-5-((((6-(2-chloro-3-(3-chloro-2-(2-((((1r,3r)-3-hydroxy-3-methylcyclobutyl)amino)methyl)-8-methoxyimidazo[1,2-a]pyridin-6-yl)pyridin-4-yl)phenyl)-2-methoxypyridin-3-yl)methyl)amino)methyl)pyrrolidin-2-one], half-maximal inhibition in experiment [1] (IC50) was put at 0.000813 µM. This molecule also displayed a half-maximal effective concentration (EC50) at human PD-L1 of 0.178 µM.

The molecule `COc1nc(-c2cccc(-c3ccnc(-c4cc(OC)c5nc(CN6CC7(CNC(=O)C7)C6)cn5c4)c3Cl)c2Cl)ccc1CNC[C@@H]1CCC(=O)N1` [Example 314, (S)-2-((6-(3-Chloro-4-(2-chloro-3-(6-methoxy-5-((((5-oxopyrrolidin-2-yl)methyl)amino)methyl)pyridin-2-yl)phenyl)pyridin-2-yl)-8-methoxyimidazo[1,2-a]pyridin-2-yl)methyl)-2,6-diazaspiro[3.4]octan-7-one] came in with an IC50 in experiment [1] of 0.00163 µM. The molecule also showed a half-maximal effective concentration (EC50) at human PD-L1 of 0.0692 µM.

For `COc1cc(-c2nccc(-c3cccc(-c4ccc(CNC5CCN(C(C)=O)CC5)c(OC)n4)c3Cl)c2Cl)ccc1CN(C)C1CCN(C(C)=O)CC1` [Example 315, 1-(4-(((6-(3-(2-(4-(((1-acetylpiperidin-4-yl)(methyl)amino)methyl)-3-methoxyphenyl)-3-chloropyridin-4-yl)-2-chlorophenyl)-2-methoxypyridin-3-yl)methyl)amino)piperidin-1-yl)ethan-1-one], in experiment [1], the 50% inhibitory concentration (IC50) came out at 0.00154 µM. The EC50 at human PD-L1 came to 0.0289 µM.

Turning to `COc1cc(-c2nccc(-c3cccc(-c4ccc(CNC5CCN(C(=O)C6CC6)CC5)c(OC)n4)c3Cl)c2Cl)cc(F)c1CNC1CCN(C(=O)C2CC2)CC1` [Example 316, (4-(((6-(2-Chloro-3-(3-chloro-2-(4-(((1-(cyclopropanecarbonyl)piperidin-4-yl)amino)methyl)-3-fluoro-5-methoxyphenyl)pyridin-4-yl)phenyl)-2-methoxypyridin-3-yl)methyl)amino)piperidin-1-yl)(cyclopropyl)methanone], the concentration for half-maximal inhibition (IC50) in experiment [1] amounted to 0.00345 µM. For the same molecule, the EC50 on human PD-L1 is 0.0457 µM.

In experiment [1], `COc1nc(-c2cccc(-c3ccnc(-c4cc(OC)c5nc(CN6CC(C)(O)C6)cn5c4)c3Cl)c2Cl)ccc1CNC[C@@H]1CCC(=O)N1` [Example 317, (S)-5-((((6-(2-Chloro-3-(3-chloro-2-(2-((3-hydroxy-3-methylazetidin-1-yl)methyl)-8-methoxyimidazo[1,2-a]pyridin-6-yl)pyridin-4-yl)phenyl)-2-methoxypyridin-3-yl)methyl)amino)methyl)pyrrolidin-2-one] returned an IC50 of 0.00194 µM. The EC50 on human PD-L1 is 0.0626 µM.

In the case of `COc1nc(-c2cccc(-c3ccnc(-c4cc(OC)c5nc(CNC6CCN(C(C)=O)CC6)cn5c4)c3Cl)c2Cl)ccc1CNC[C@@H]1CCC(=O)N1` [Example 318, (S)-5-((((6-(3-(2-(2-(((1-Acetylpiperidin-4-yl)amino)methyl)-8-methoxyimidazo[1,2-a]pyridin-6-yl)-3-chloropyridin-4-yl)-2-chlorophenyl)-2-methoxypyridin-3-yl)methyl)amino)methyl)pyrrolidin-2-one], the IC50 in experiment [1] amounted to 0.0018 µM. At human PD-L1, this molecule came in with an EC50 of 0.0315 µM.

Regarding `COc1nc(-c2cccc(-c3ccnc(-c4cc(OC)c5nc(CN6CC7(C6)CN(C(C)=O)C7)cn5c4)c3Cl)c2Cl)ccc1CNC[C@@H]1CCC(=O)N1` [Example 319, (S)-5-((((6-(3-(2-(2-((6-Acetyl-2,6-diazaspiro[3.3]heptan-2-yl)methyl)-8-methoxyimidazo[1,2-a]pyridin-6-yl)-3-chloropyridin-4-yl)-2-chlorophenyl)-2-methoxypyridin-3-yl)methyl)amino)methyl)pyrrolidin-2-one], the IC50 in experiment [1] was determined as 0.000767 µM. Also, a half-maximal effect on human PD-L1 (EC50) was put at 0.0383 µM.

For `COc1nc(-c2cccc(-c3ccnc(-c4cc(OC)c5nc(CN6CC7(CCC(=O)N7)C6)cn5c4)c3Cl)c2Cl)ccc1CNC[C@@H]1CCC(=O)N1` [Example 320, (S)-2-((6-(3-Chloro-4-(2-chloro-3-(6-methoxy-5-((((5-oxopyrrolidin-2-yl)methyl)amino)methyl)pyridin-2-yl)phenyl)pyridin-2-yl)-8-methoxyimidazo[1,2-a]pyridin-2-yl)methyl)-2,5-diazaspiro[3.4]octan-6-one], the concentration for half-maximal inhibition (IC50) in experiment [1] was 0.000231 µM. The same molecule registered an EC50 on human PD-L1 of 0.0512 µM.

As to `COc1nc(-c2cccc(-c3ccnc(-c4cc(OC)c5nc(CNC6CC7(COC7)C6)cn5c4)c3Cl)c2Cl)ccc1CNC[C@@H]1CCC(=O)N1` [Example 321, (S)-5-((((6-(3-(2-(2-(((2-Oxaspiro[3.3]heptan-6-yl)amino)methyl)-8-methoxyimidazo[1,2-a]pyridin-6-yl)-3-chloropyridin-4-yl)-2-chlorophenyl)-2-methoxypyridin-3-yl)methyl)amino)methyl)pyrrolidin-2-one], the IC50 in experiment [1] is 0.000847 µM. The EC50 at human PD-L1 was determined as 0.0647 µM.

`COc1cc(-c2nccc(-c3cccc(-c4ccc(CN5CCC(NC(C)=O)CC5)c(OC)n4)c3Cl)c2Cl)ccc1CN1CCC(NC(C)=O)CC1` [Example 322, N-(1-((6-(3-(2-(4-((4-Acetamidopiperidin-1-yl)methyl)-3-methoxyphenyl)-3-chloropyridin-4-yl)-2-chlorophenyl)-2-methoxypyridin-3-yl)methyl)piperidin-4-yl)acetamide] displayed an IC50 in experiment [1] of 0.0231 µM. Besides, the response at human PD-L1 was half-maximal at 0.0729 µM (EC50).

With `COc1cc(-c2nccc(-c3cccc(-c4ccc(CNC5CCN(C(C)=O)CC5)c(OC)n4)c3Cl)c2Cl)ccc1CN1CCC(NC(C)=O)CC1` [Example 325, N-(1-(4-(4-(3-(5-(((1-Acetylpiperidin-4-yl)amino)methyl)-6-methoxypyridin-2-yl)-2-chlorophenyl)-3-chloropyridin-2-yl)-2-methoxybenzyl)piperidin-4-yl)acetamide], half-maximal inhibition in experiment [1] (IC50) required 0.00276 µM. This molecule showed an EC50 on human PD-L1 of 0.0395 µM.
